Earlier results, collected in patent publication US20030082168A1, “Compositions and methods for facilitating weight loss” (priority 2001, published 2003).
Read-outs that look alike come from different tables or passages of the source.

How the values were obtained:
[1] = system: intercapsular brown adipose tissue (IBAT); conditions: caffeine alone
[2] = for Weight of control group above CLA group: after 6 weeks
[3] = 2% CLA in diet; P=0.01

Molecule	IBAT oxygen uptake [1]	Weight of control group above CLA group ([2]; high-fat diet, P<0.0001) [g]	Energy intake, growth rate, adipose depot weight and carcass lipid ([2]; independent of diet composition)	Weight of control group above CLA group ([2]; low-fat diet, P<0.005) [g]	Metabolic rate ([2]; mouse, in vivo)	Nighttime respiratory quotient ([2]; mouse, in vivo)	Subcutaneous fat, change vs sunflower oil [3] [%]
Cn1c(=O)c2c(ncn2C)n(C)c1=O [Caffeine]	does not increase						
Conjugated linoleic acid [CLA]		5.7	significantly reduced	3.2	significantly increased	decreased	−6.8
